The values below come from patent US20240123073A1, “NOVEL RIPK1 KINASE TARGETING PROTACS AND METHODS OF USE THEREOF” (Baylor College of Medicine, priority 2020, published 2024).

SMILES strings stand for the structures.

The target of this assay is T1, RIPK1 (Homo sapiens, UniProt Q13546).
T1 construct: endogenous in cells
T1 sequence (Q13546 1-671): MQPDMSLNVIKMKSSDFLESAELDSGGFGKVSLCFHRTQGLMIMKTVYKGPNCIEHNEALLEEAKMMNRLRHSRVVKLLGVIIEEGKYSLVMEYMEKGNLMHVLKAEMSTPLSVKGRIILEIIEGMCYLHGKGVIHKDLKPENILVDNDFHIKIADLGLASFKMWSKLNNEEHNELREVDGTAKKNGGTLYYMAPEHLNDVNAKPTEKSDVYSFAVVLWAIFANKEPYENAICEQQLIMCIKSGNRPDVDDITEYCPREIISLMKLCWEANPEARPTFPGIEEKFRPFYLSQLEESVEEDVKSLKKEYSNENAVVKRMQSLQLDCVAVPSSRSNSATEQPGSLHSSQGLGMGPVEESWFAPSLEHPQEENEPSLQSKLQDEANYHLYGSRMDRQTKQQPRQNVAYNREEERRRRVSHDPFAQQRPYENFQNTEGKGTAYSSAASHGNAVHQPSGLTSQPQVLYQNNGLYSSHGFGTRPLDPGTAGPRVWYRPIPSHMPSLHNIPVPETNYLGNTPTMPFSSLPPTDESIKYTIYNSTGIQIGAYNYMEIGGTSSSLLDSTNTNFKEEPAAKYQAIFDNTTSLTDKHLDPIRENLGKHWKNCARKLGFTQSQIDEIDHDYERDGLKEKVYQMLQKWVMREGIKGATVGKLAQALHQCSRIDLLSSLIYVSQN
The experiment in a line: RIPK1 degradation Western Blot assay. The note with it: human cells, 24 h incubation at 37° C., read-out: Degradation Activity (DC50, concentration at which 50% of RIPK1 kinase has been degraded). It is filed as cell-based. The protocol: Cells were seeded in 6-well cell culture plates overnight prior to treatment and incubated with the indicated doses of compounds for 24 h at 37° C. Then, cell pellets were collected and resuspended with RIPA lysis buffer, which was added with 1% […] inhibitor and phosphatase inhibitor Cocktail. Whole-cell protein lysates were sonicated on ice for 20 seconds and centrifuged at 12 000 rpm for 20 min at 4° C. The supernatants were determined using the BCA method. Proteins were separated by sodium dodecyl sulfate-polyacrylamide gel electrophoresis and transferred to polyvinylidene fluoride membranes. The membranes were incubated with blocking buffer for 1 h. Then, the membranes were incubated at 4° C. overnight with the primary antibodies. After washing, the membranes were incubated for 1 h at room temperature with the secondary antibody and washed again. Changes in protein expression was detected using an enhanced chemiluminescence detection reagent. RIPK1 antibody was purchased from Santa Cruz.
The activities of exemplary compounds as described herein, measured in terms of the degradation concentration (DC50 representing the concentration at which 50% of the target, in this case RIPK1 kinase, has been degraded), are provided in Table 11. In Table 11, a DC50 value less than 1 μM is indicated as an “A;” a DC50 value from 1 μM to 10 μM is indicated as a “B” and a DC50 value of greater than 10 μM is indicated as a “C.”
On the technique in general: Immunoblotting shows a protein as a band on a membrane.
As for `Cc1ncsc1-c1ccc([C@H](C)NC(=O)[C@@H]2C[C@@H](O)CN2C(=O)[C@@H](NC(=O)CCC(=O)NCCCn2cc(-c3ccc4c(c3)CCN4C(=O)Cc3cccc(OC(F)(F)F)c3)c3c(N)ncnc32)C(C)(C)C)cc1` [Compound 1, N1-(3-(4-amino-5-(1-(2-(3-(trifluoromethoxy)phenyl)acetyl)indolin-5-yl)-7H-pyrrolo[2,3-d]pyrimidin-7-yl)propyl)-N4-((S)-1-((2S,4R)-4-hydroxy-2-(((S)-1-(4-(4 methylthiazol-5-yl)phenyl)ethyl)carbamoyl)pyrrolidin-1-yl)-3,3-dimethyl-1-oxobutan-2-yl)succinimide], the DC50 fell in the range of 1 to 10 µM. The value for `Nc1ncnc2c1c(-c1ccc3c(c1)CCN3C(=O)Cc1cccc(OC(F)(F)F)c1)cn2CCCNC(=O)CCOCCOCCOCCNc1cccc2c1C(=O)C(C1CCC(=O)NC1=O)C2=O` (centres unmarked) [Compound 8, N-(3-(4-amino-5-(1-(2-(3-(trifluoromethoxy)phenyl)acetyl)indolin-5-yl)-7H-pyrrolo[2,3-d]pyrimidin-7-yl)propyl)-3-(2-(2-(2-((2-(2,6-dioxopiperidin-3-yl)-1,3-dioxo-2,3-dihydro-1H-inden-4-yl)amino)ethoxy)ethoxy)ethoxy)propanamide] was 1 to 10 µM; that for `Nc1ncnc2c1c(-c1ccc3c(c1)CCN3C(=O)Cc1cccc(OC(F)(F)F)c1)cn2CCCNC(=O)CCCCCCCCNC(=O)[C@@H]1NC2(CCCCC2)[C@@]2(C(=O)Nc3cc(Cl)ccc32)[C@H]1c1cccc(Cl)c1F` [Compound 10, (3′R,4'S,5′R)-N-(9-((3-(4-amino-5-(1-(2-(3-(trifluoromethoxy)phenyl)acetyl)indolin-5-yl)-7H-pyrrolo[2,3-d]pyrimidin-7-yl)propyl)amino)-9-oxononyl)-6″-chloro-4′-(3-chloro-2-fluorophenyl)-2″-oxodispiro[cyclohexane-1,2′-pyrrolidine-3′,3″-indoline]-5′-carboxamide] was 1 to 10 µM; that for `O=C1CCC(C2C(=O)c3cccc(NCCOCCOCCOCCC(=O)N4CCC(C(=O)N5N=CCC5c5ccccc5)CC4)c3C2=O)C(=O)N1` (centres unmarked) [Compound 11] was more than 10 µM. Regarding `O=C1CCC(C2C(=O)c3cccc(NCCOCCOCCC(=O)N4CCC(C(=O)N5N=CCC5c5ccccc5)CC4)c3C2=O)C(=O)N1` (centres unmarked) [Compound 12], the DC50 is more than 10 µM. For the compound `Cc1ncsc1-c1ccc([C@H](C)NC(=O)[C@@H]2C[C@@H](O)CN2C(=O)[C@@H](NC(=O)CCCCCCCCC(=O)N2CCC(C(=O)N3N=CCC3c3ccccc3)CC2)C(C)(C)C)cc1` (stereo partly drawn) [Compound 13, (2S,4R)-1-((2S)-3,3-dimethyl-2-(10-oxo-10-(4-(5-phenyl-4,5-dihydro-1H-pyrazole-1-carbonyl)piperidin-1-yl)decanamide)butanoyl)-4-hydroxy-N—((S)-1-(4-(4-methylthiazol-5-yl)phenyl)ethyl)pyrrolidine-2-carboxamide], the DC50 was more than 10 µM. Take `O=C(NCCOCCC(=O)N1CCC(C(=O)N2N=CCC2c2ccccc2)CC1)[C@@H]1NC2(CCCCC2)[C@@]2(C(=O)Nc3cc(Cl)ccc32)[C@H]1c1cccc(Cl)c1F` (stereo partly drawn) [Compound 15, (3′R,4'S,5′R)-6″-chloro-4′-(3-chloro-2-fluorophenyl)-2″-oxo-N-(2-(3-oxo-3-(4-(5-phenyl-4,5-dihydro-1H-pyrazole-1-carbonyl)piperidin-1-yl)propoxy)ethyl)dispiro[cyclohexane-1,2′-pyrrolidine-3′,3″-indoline]-5′-carboxamide]: the DC50 fell in the range of 1 to 10 µM.

For `O=C1CCC(N2C(=O)c3cccc(NCCOCCOCCOCCNC(=O)c4ccnc(N5CCC(C(=O)N6N=CCC6c6ccccc6)CC5)n4)c3C2=O)C(=O)N1` (centres unmarked) [Compound 19, N-(2-(2-(2-(2-((2-(2,6-dioxopiperidin-3-yl)-1,3-dioxoisoindolin-4-yl)amino)ethoxy)ethoxy)ethoxy)ethyl)-2-(4-(5-phenyl-4,5-dihydro-1H-pyrazole-1-carbonyl)piperidin-1-yl)pyrimidine-4-carboxamide], the DC50 lay in the range of 1 to 10 µM. Regarding `O=C(NCCOCCOCCOCCNC(=O)[C@@H]1NC2(CCCCC2)[C@@]2(C(=O)Nc3cc(Cl)ccc32)[C@H]1c1cccc(Cl)c1F)c1ccnc(N2CCC(C(=O)N3N=CCC3c3ccccc3)CC2)n1` (stereo partly drawn) [Compound 20, (3′R,4'S,5′R)-6″-chloro-4′-(3-chloro-2-fluorophenyl)-2″-oxo-N-(1-oxo-1-(2-(4-(5-phenyl-4,5-dihydro-1H-pyrazole-1-carbonyl)piperidin-1-yl)pyrimidin-4-yl)-5,8,11-trioxa-2-azatridecan-13-yl)dispiro[cyclohexane-1,2′-pyrrolidine-3′,3″-indoline]-5′-carboxamide], the DC50 was in the range of 1 to 10 µM. On to `O=C1CCC(N2C(=O)c3cccc(NCCOCCOCCOCCNC(=O)c4ccc(-c5cc(N6CCC(C(=O)N7N=CCC7c7ccccc7)CC6)ncn5)cc4)c3C2=O)C(=O)N1` (centres unmarked) [Compound 21, N-(2-(2-(2-(2-((2-(2,6-dioxopiperidin-3-yl)-1,3-dioxoisoindolin-4-yl)amino)ethoxy)ethoxy)ethoxy)ethyl)-4-(6-(4-(5-phenyl-4,5-dihydro-1H-pyrazole-1-carbonyl)piperidin-1-yl)pyrimidin-4-yl)benzamide], for which the DC50 was more than 10 µM. As for `Cc1ncsc1-c1ccc([C@H](C)NC(=O)[C@@H]2C[C@@H](O)CN2C(=O)[C@@H](NC(=O)CCOCCOCCOCCNC(=O)c2ccc(-c3cc(N4CCC(C(=O)N5N=CCC5c5ccccc5)CC4)ncn3)cc2)C(C)(C)C)cc1` (stereo partly drawn) [Compound 23, (2S,4R)-1-((16S)-16-(tert-butyl)-1,14-dioxo-1-(4-(6-(4-(5-phenyl-4,5-dihydro-1H-pyrazole-1-carbonyl)piperidin-1-yl)pyrimidin-4-yl)phenyl)-5,8,11-trioxa-2,15-diazaheptadecane-17-oyl)-4-hydroxy-N—((S)-1-(4-(4-methylthiazol-5-yl)phenyl)ethyl)pyrrolidine-2-carboxamide], the figure is more than 10 µM; as for `Cc1ncsc1-c1ccc([C@H](C)NC(=O)[C@@H]2C[C@@H](O)CN2C(=O)[C@@H](NC(=O)CCOCCOCCOCCOCCn2cc(-c3ccc4c(c3)CCN4C(=O)Cc3cccc(OC(F)(F)F)c3)c3c(N)ncnc32)C(C)(C)C)cc1` [Compound 29, (2S,4R)-1-((S)-1-(4-amino-5-(1-(2-(3-(trifluoromethoxy)phenyl)acetyl)indolin-5-yl)-7H-pyrrolo[2,3-d]pyrimidin-7-yl)-17-(tert-butyl)-15-oxo-3,6,9,12-tetraoxa-16-azaoctadecan-18-oyl)-4-hydroxy-N—((S)-1-(4-(4-methylthiazol-5-yl)phenyl)ethyl)pyrrolidine-2-carboxamide], less than 1 µM.

Take `Cc1ncsc1-c1ccc([C@H](C)NC(=O)[C@@H]2C[C@@H](O)CN2C(=O)[C@@H](NC(=O)CCc2ccc(C#Cc3ccc(C(=O)NCCCn4cc(-c5ccc6c(c5)CCN6C(=O)Cc5cccc(OC(F)(F)F)c5)c5c(N)ncnc54)cc3)cn2)C(C)(C)C)cc1` [Compound 33]: the DC50 was less than 1 µM. On to `Cc1ncsc1-c1ccc([C@H](C)NC(=O)[C@@H]2C[C@@H](O)CN2C(=O)[C@@H](NC(=O)CCc2ccc(C#Cc3ccc(CCC(=O)NCCCn4cc(-c5ccc6c(c5)CCN6C(=O)Cc5cccc(OC(F)(F)F)c5)c5c(N)ncnc54)cc3)cn2)C(C)(C)C)cc1` [Compound 34], for which the DC50 is less than 1 µM. On to `Cc1ncsc1-c1ccc([C@H](C)NC(=O)[C@@H]2C[C@@H](O)CN2C(=O)[C@@H](NC(=O)c2ccc(C#Cc3ccc(C(=O)NCCCn4cc(-c5ccc6c(c5)CCN6C(=O)Cc5cccc(OC(F)(F)F)c5)c5c(N)ncnc54)cc3)cn2)C(C)(C)C)cc1` [Compound 35], for which the DC50 is less than 1 µM. Turning to `Cc1ncsc1-c1ccc([C@H](C)NC(=O)[C@@H]2C[C@@H](O)CN2C(=O)[C@@H](NC(=O)CCN2CCC(C#Cc3ccc(C(=O)NCCCn4cc(-c5ccc6c(c5)CCN6C(=O)Cc5cccc(OC(F)(F)F)c5)c5c(N)ncnc54)cc3)CC2)C(C)(C)C)cc1` [Compound 36], the DC50 was less than 1 µM. In the case of `Cc1ncsc1-c1ccc([C@H](C)NC(=O)[C@@H]2C[C@@H](O)CN2C(=O)[C@@H](NC(=O)CCN2CC3(CC(Oc4ccc(C(=O)NCCCn5cc(-c6ccc7c(c6)CCN7C(=O)Cc6cccc(OC(F)(F)F)c6)c6c(N)ncnc65)cn4)C3)C2)C(C)(C)C)cc1` [Compound 38], the DC50 is 1 to 10 µM.
